The test system of assay [1] is MDA-231 breast. Kind of assay: Cancer cell growth inhibition assay (MTT). In kind it is cell-based, human. Here is the method: (§1) Exponentially growing cells in 0.1 ml medium were seeded on Day 0 in 96-well microtiter plates. On Day 1, 0.1-ml aliquots of medium containing graded concentrations test agent were added in duplicate to the cell plates. After incubation at 37° C. in a humidified incubator, the plates were centrifuged briefly (1-2 min at 1000 rpm), and 100 μl of the growth medium was removed. Cell cultures were incubated with 50 μl of 3-(4,5-dimethylthiazyl-2-yl)-2,5-diphenyltetrazolium bromide MTT, 1 mg/ml in Dubecco's PBS for 4 h at 37° C. The resulting purple formazan precipitate was solubilized with 200 μl of 0.4 N HCl in isopropyl alcohol. Absorbance was quantitated using a Bio-Rad Model 3550 microplate reader at a test wavelength of 570 nm and a reference wavelength of 630 nm. Absorbance values were transferred to a 486 personal computer, and the IC50 values were determined using the computer program EZ-ED50 (Chen et al., 1993).

The test system of assay [2] is HT-29 colon. Kind of assay: Cancer cell growth inhibition assay (MTT). In kind it is cell-based, human. The procedure:
as §1

Assay [3] deals with Raji lymphoma. Kind of assay: Cancer cell growth inhibition assay (MTT). In kind it is cell-based, human. Here is the method:
as §1

Assay [4] relates to H226 non-small-cell lung. Kind of assay: Cancer cell growth inhibition assay (MTT). It is filed as cell-based, human. Here is the method:
as §1

Assay [5] deals with DU-145 prostate. Kind of assay: Cancer cell growth inhibition assay (MTT). It is filed as cell-based, human. The procedure: as §1
Assay [6] deals with B16 melanoma. Nature of the assay: Cancer cell growth inhibition assay (MTT). In kind it is cell-based, murine. The procedure: as §1
Assay [7] concerns the target T1, human topoisomerase II (Homo sapiens, UniProt P11388).
T1 construct: purchased TopoGEN, Inc
Kind of assay: Decatenation assay (catenated to decatenated KDNA). It is filed as biochemical. As to conditions: drug concentration that inhibits 50% of conversion of catenated to decatenated KDNA; read-out: topoisomerase II inhibition IC50. The procedure:
Kinetoplast DNA (KDNA), human topoisomerase II (170 KDa form), and DNA Unwinding Kit including supercoiled pHOT1 DNA, relaxed DNA marker, buffers, and human topoisomerase I were purchased from TopoGEN, Inc. Agarose was purchased from Fisher. Quinobenzoxazine A-62176 (S-enantiomer) was provided by Abbott Laboratories or prepared by published procedure (Chu and Maleczka, Jr., 1987).
0.25 μg of KDNA was incubated with various concentrations of the quinobenzoxazines in a 20-μl reaction mixture containing 50 mM Tris-HCl (pH 8), 120 mM KCl, 10 mM MgCl2, and 0.5 mM each of ATP, dithiothreitol, and […] BSA for 10 min. Two units of human topoisomerase II (170 KDa form) were added to the mixture, which was then incubated at 37° C. for 30 min. The reaction was terminated with 0.1 volume of stop buffer (5% sarkosyl, 0.025% bromophenol blue, and 50% glycerol). The decatenation products were analyzed on 1% agarose gels run with 0.5 μg/ml ethidium bromide. The gels were scanned by FluoroImager and analyzed by ImageQuaNT software (Molecular Dynamics).

The subject of assay [8] is human telomerase. Nature of the assay: Telomerase inhibition assay (HeLa cell extract). It is filed as biochemical. The procedure:
The assay used crude HeLa cell extract as the source of human telomerase. It measures the incorporation of ^32P-labeled dGTP into the primer extension of human telomere synthesis (Sun et al., 1998). […] Specific examples of such dual-acting compounds include compounds 2b and 2a (FIG. 3).
The assay was performed by using 5′-end biotinylated d[TTAGGG]3 as the telomere primer. Reaction mixtures (20 μl) containing 5 μl cell lysate (S-100), 50 mM Tris-OAc (pH 8.5), 50 mM K-OAc, 1 mM MgCl2, 5 mM BME, 1 mM spermidine, 1 μM telomere primer, 1.5 μM [α-^32P]-dGTP (800 Ci/mmol), 1 mM dATP, and 1 mM dTTP were incubated at 37° C. for 1 hr, and the reactions were terminated by adding 20 μl of […] streptavidin-coated Dynabeads suspension containing 10 mM Tris-HCl (pH 7.5), 1 mM EDTA, 2M KCl, and a 500 cpm biotinylated internal control. Streptavidin-coated Dynabeads bind selectively to the desired target (5′-biotinylated primer), forming a magnetic bead-targeted complex. The complex was separated from the suspension using a Dynal MPC magnet and washed several times with 2×SSC buffer containing 0.1% SDS to eliminate [α-^32P]-dGTP background. Telomerase reaction products were separated from the magnetic beads by protein denaturation with 5.7 M guanidine-HCl at 90° C. for 30 min. After ethanol precipitation, products were resolved on denaturating 10% polyacrylamide gel.

Assay [9] concerns supercoiled pHOT1 DNA. Nature of the assay: DNA unwinding assay. As to conditions: concentration shifting topoisomers to the middle position between relaxed and supercoiled bands. It is filed as biochemical. The procedure: A 22 μl mixture of 0.25 μg of supercoiled pHOT1 DNA, 5 units of topoisomerase I in topoisomerase I buffer (provided with the kit) was incubated at 37° C. for 30 min. Two μl of various concentrations of drug was added, and the incubation was continued for another 30 min. The reactions were terminated by addition of SDS to 1%. Proteinase K was added to the reaction mixtures to ca. 50 μg/ml, and the reaction mixtures were incubated for 15-20 min at 56° C. After adding 0.1 volume of 10×gel loading buffer, the reaction mixtures were extracted with an equal volume of CIA (Chloroform:isoamyl Alcohol; 24:1). The samples were loaded on an 1% agarous gel that was cast in TPE buffer (36 mM Tris-HCl, pH 7.8, 1 mM EDTA, 30 mM NaH2PO4) and 0.2 μg/ml Chloroquine. The gel was run in TPE buffer at room temperature at 10 volts for 20 h, destained in water for 15 min, stained in 0.05 μg/ml ethidium bromide for 15 min, and destained again in water for 15 min. The gel was then photographed, scanned by FluoroImager, and analyzed by ImageQuaNT software (Molecular Dynamics).

Some results are limits rather than exact numbers.

T1 sequence (P11388 whole entry): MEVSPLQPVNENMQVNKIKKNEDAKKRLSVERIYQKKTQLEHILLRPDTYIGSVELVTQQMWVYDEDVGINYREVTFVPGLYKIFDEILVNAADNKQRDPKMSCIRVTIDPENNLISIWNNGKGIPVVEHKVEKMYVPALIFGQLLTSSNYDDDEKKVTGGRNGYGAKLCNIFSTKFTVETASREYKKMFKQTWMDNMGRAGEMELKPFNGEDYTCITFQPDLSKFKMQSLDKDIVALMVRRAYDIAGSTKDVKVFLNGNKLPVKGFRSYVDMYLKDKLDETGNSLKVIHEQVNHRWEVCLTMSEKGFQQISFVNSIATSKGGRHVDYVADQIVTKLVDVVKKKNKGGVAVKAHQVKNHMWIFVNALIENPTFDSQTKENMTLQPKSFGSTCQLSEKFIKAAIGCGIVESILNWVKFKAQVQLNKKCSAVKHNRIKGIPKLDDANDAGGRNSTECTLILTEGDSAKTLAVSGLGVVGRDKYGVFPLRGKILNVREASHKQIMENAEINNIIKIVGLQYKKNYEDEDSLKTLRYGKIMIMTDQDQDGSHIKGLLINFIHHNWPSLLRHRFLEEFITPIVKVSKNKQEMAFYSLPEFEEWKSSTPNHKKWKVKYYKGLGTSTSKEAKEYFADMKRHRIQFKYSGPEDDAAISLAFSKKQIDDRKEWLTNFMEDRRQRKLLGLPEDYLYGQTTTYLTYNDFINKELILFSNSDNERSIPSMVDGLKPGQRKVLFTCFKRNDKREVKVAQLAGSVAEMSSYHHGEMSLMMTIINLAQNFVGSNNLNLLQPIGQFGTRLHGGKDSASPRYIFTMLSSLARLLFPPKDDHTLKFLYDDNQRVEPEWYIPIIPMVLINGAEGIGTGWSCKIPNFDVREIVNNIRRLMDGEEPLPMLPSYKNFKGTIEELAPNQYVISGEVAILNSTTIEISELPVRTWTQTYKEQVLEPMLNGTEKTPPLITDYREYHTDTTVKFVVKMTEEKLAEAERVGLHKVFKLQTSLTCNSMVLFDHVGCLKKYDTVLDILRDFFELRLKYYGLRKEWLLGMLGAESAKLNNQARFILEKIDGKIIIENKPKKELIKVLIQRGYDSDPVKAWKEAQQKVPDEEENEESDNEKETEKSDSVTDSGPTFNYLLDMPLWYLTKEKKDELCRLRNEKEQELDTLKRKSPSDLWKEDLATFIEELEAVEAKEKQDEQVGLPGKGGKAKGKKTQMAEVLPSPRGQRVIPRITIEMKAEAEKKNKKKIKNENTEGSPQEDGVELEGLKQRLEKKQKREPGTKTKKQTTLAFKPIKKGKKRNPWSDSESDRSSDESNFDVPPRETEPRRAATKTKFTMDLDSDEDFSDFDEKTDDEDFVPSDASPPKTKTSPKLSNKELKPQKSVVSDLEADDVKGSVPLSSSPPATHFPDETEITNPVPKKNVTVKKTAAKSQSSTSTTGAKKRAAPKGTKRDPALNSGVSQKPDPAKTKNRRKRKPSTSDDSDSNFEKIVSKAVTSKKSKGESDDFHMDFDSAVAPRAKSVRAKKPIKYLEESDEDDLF

Consider `NC1CCN(c2c(F)cc3c(=O)c(C(=O)O)cn4c3c2Oc2ccc3ccccc3c2-4)C1` (racemic) [Compound 1a, 1-(3-Aminopyrrolidin-1-yl)-2-fluoro-4-oxo-4H-pyrido[3,2,1-k,l]-benzo[h]-phenoxazine-5-carboxylic Acid], for which the half-inhibitory concentration (IC50) (commonly the concentration needed to halve the response being measured) in assay [1] was 0.15 ± 0.04 µM; in assay [2], 0.18 ± 0.01 µM; in assay [3] it was 0.086 ± 0.006 µM; in assay [4], 0.14 ± 0.01 µM; in assay [5], 0.2 ± 0.03 µM; in [6], 0.44 ± 0.06 µM. In assay [7], the IC50 is 0.77 µM.
Take `Cl.NC1CCN(c2c(F)cc3c(=O)c(C(=O)O)cn4c3c2Oc2c-4ccc3ccccc23)C1` (racemic) [Compound 2a, 1-(3-Aminopyrrolidin-1-yl)-2-fluoro-4-oxo-4H-pyrido[3,2,1-k,l]-benzo[f]-phenoxazine-5-carboxylic Acid]: the IC50 is 0.027 ± 0.002 µM in assay [1]; 0.03 ± 0.003 µM in assay [2]; 0.018 ± 0.001 µM in assay [3]; 0.022 ± 0.002 µM in [4]; 0.017 ± 0.007 µM in [5]; 0.04 ± 0.004 µM in [6]. Further, the IC50 in assay [7] was 0.55 µM. In addition, the “telomerase inhibition (qualitative)” value in [8] is given as “dual-acting”.
As to `NC1CCN(c2c(F)cc3c(=O)c(C(=O)O)cn4c3c2Oc2cc3ccccc3cc2-4)C1` (racemic) [Compound 3a, 1-(3-Aminopyrrolidin-1-yl)-2-fluoro-4-oxo-4H-pyrido[3,2,1-k,l]-benzo[g]-phenoxazine-5-carboxylic Acid], the half-maximal inhibitory concentration (IC50) turned out to be 0.023 ± 0.004 µM in assay [1]; 0.028 ± 0.005 µM in [2]; 0.038 ± 0.006 µM in assay [3]; 0.004 ± 0.002 µM in assay [4]; 0.025 ± 0.009 µM in [5]; 0.1 ± 0.01 µM in [6]. Further, the IC50 in [7] stood at 0.77 µM.
In the case of `Cl.NC1CCN(c2c(F)cc3c(=O)c(C(=O)O)cn4c3c2Oc2ccc3ccccc3c2-4)C1` (centres unmarked) [Compound 1b, 1-(3-Aminopyrrolidin-1-yl)-2-fluoro-4-oxo-4H-pyrido[3,2,1-k,l]-benzo[h]-phenoxazine-5-carboxylic Acid], the IC50 in [1] was 0.35 ± 0.06 µM; in assay [2], 0.36 ± 0.04 µM; in assay [3], 0.16 ± 0.07 µM; in assay [4], 2.4 ± 0.1 µM; in [5] it was 0.36 ± 0.12 µM; in assay [6], 0.68 ± 0.05 µM. Also, the IC50 in assay [7] is 1.22 µM. The DNA unwinding concn in assay [9] was 35 µM.
On to `Cl.NC1CCN(c2c(F)cc3c(=O)c(C(=O)O)cn4c3c2Oc2ccc3ccccc3c2-4)C1` (centres unmarked) [Compound 1c, 1-(3-Aminopyrrolidin-1-yl)-2-fluoro-4-oxo-4H-pyrido[3,2,1-k,l]-benzo[h]-phenoxazine-5-carboxylic Acid], for which the IC50 came to 0.19 ± 0.04 µM in assay [1]; 0.27 ± 0.04 µM in assay [2]; 0.082 ± 0.008 µM in [3]; 0.13 ± 0.01 µM in assay [4]; 0.14 ± 0.01 µM in assay [5]; 0.13 ± 0.02 µM in assay [6]. For the same compound, the IC50 in [7] amounted to 0.72 µM. The DNA unwinding concn in assay [9] came to 19 µM.
As to `Cl.NC1CCN(c2c(F)cc3c(=O)c(C(=O)O)cn4c3c2Oc2c-4ccc3ccccc23)C1` (centres unmarked) [Compound 2c, 1-(3-Aminopyrrolidin-1-yl)-2-fluoro-4-oxo-4H-pyrido[3,2,1-k,l]-benzo[f]-phenoxazine-5-carboxylic Acid], the IC50 in assay [1] turned out to be 0.084 ± 0.007 µM; in assay [2], 0.051 ± 0.006 µM; in [3] it was 0.02 ± 0.004 µM; in assay [4] it was 0.027 ± 0.004 µM; in assay [5] it was 0.064 ± 0.007 µM; in [6], 0.18 ± 0.02 µM. Further, the half-inhibitory concentration (IC50) in assay [7] is 0.49 µM. For the same compound, the DNA unwinding concn in assay [9] worked out at 10 µM.
With `Cl.NC1CCN(c2c(F)cc3c(=O)c(C(=O)O)cn4c3c2Oc2cc3ccccc3cc2-4)C1` (centres unmarked) [Compound 3b, 1-(3-Aminopyrrolidin-1-yl)-2-fluoro-4-oxo-4H-pyrido[3,2,1-k,l]-benzo[g]-phenoxazine-5-carboxylic Acid], the IC50 in [1] is 0.021 ± 0.002 µM; in [2], 0.022 ± 0.003 µM; in assay [3] it was 0.032 ± 0.005 µM; in [4] it was 0.022 ± 0.015 µM; in assay [5], 0.048 ± 0.008 µM; in assay [6], 0.14 ± 0.015 µM. In addition, the IC50 in [7] is 0.42 µM. In assay [9], the DNA unwinding concn amounted to 15 µM.
As to `Cl.NC1CCN(c2c(F)cc3c(=O)c(C(=O)O)cn4c3c2Oc2cc3ccccc3cc2-4)C1` (centres unmarked) [Compound 3c, 1-(3-Aminopyrrolidin-1-yl)-2-fluoro-4-oxo-4H-pyrido[3,2,1-k,l]-benzo[g]-phenoxazine-5-carboxylic Acid], the IC50 was determined as 0.01 ± 0.002 µM in [1]; 0.023 ± 0.003 µM in assay [2]; 0.029 ± 0.005 µM in [3]; 0.014 ± 0.002 µM in [4]; 0.03 ± 0.006 µM in assay [5]; 0.02 ± 0.006 µM in assay [6]. Further, the half-inhibitory concentration (IC50) in [7] came to 0.44 µM. In [9], the DNA unwinding concn was 13 µM.
For `O=C(O)c1cn2c3c(c(N4CCNCC4)c(F)cc3c1=O)Oc1ccc3ccccc3c1-2` [Compound 4, 1-(Piperazin-1-yl)-2-fluoro-4-oxo-4H-pyrido[3,2,1-k,l]-benzo[h]phenoxazine-5-carboxylic Acid], the IC50 in assay [1] was found to be 2.2 ± 0.3 µM; in assay [2], 2 ± 0.2 µM; in assay [3], 0.8 ± 0.05 µM; in [4], 2.1 ± 0.2 µM; in assay [5], 0.84 ± 0.27 µM; in [6], 2.1 ± 0.3 µM. Further, in assay [7], the IC50 was 9.6 µM. Besides, the DNA unwinding concn in assay [9] is >100 µM.
Turning to `O=C(O)c1cn2c3c(c(N4CCNCC4)c(F)cc3c1=O)Oc1c-2ccc2ccccc12` [Compound 5, 1-(Piperazin-1-yl)-2-fluoro-4-oxo-4H-pyrido[3,2,1-k,l]-benzo[f]phenoxazine-5-carboxylic Acid], the IC50 in assay [1] came out at 0.38 ± 0.05 µM; in assay [2] it was 0.36 ± 0.09 µM; in assay [3], 0.21 ± 0.04 µM; in assay [4], 0.2 ± 0.03 µM; in [5], 0.14 ± 0.04 µM; in [6] it was 0.65 ± 0.06 µM. Moreover, in [7], the IC50 came out at 1.84 µM. Moreover, the DNA unwinding concn in assay [9] is >100 µM.
Turning to `O=C(O)c1cn2c3c(c(N4CCNCC4)c(F)cc3c1=O)Oc1cc3ccccc3cc1-2` [Compound 6, 1-(Piperazin-1-yl)-2-fluoro-4-oxo-4H-pyrido[3,2,1-k,l]-benzo[g]phenoxazine-5-carboxylic Acid], the half-inhibitory concentration (IC50) in assay [1] was > 1000 µM; in assay [2] it was 6.8 ± 1.8 µM; in assay [3], 0.0072 ± 0.0076 µM; in [4] it was > 100 µM; in [5] it was 0.075 ± 0.032 µM; in assay [6], 0.045 ± 0.048 µM. Also, the IC50 in assay [7] was determined as 0.64 µM. In addition, in assay [9], the DNA unwinding concn was >100 µM.

The values above are taken from patent US6528517B1, “Synthesis of quinobenzoxazine analogues with topoisomerase II and quadruplex interactions for use as antineoplastic agents” (Board of Regents, The University of Texas System, priority 1998, dated 2003).
